Values quoted from earlier work, collected in patent US7853626B2, “Computational systems for biomedical data” (The Invention Science Fund I, LLC, priority 2006, dated 2010).
Like-named read-outs stand apart in the source and are kept apart here.

What was measured:
hyperthyroidism = conditions: groups not comparable at baseline (surgery group younger, in better health)

In the case of `[131IH]` [iodine-131], the “frequency of illness and death compared with surgery” value (hyperthyroidism) is given as “much higher frequency of illness and death”.

In the case of `Nc1nc2[nH]cc(CCc3ccc(C(=O)N[C@@H](CCC(=O)O)C(=O)O)cc3)c2c(=O)[nH]1` [pemetrexed], the subset efficacy (members of the identified subpopulation (low methylmalonic acid / homocysteine)) is given as “maintained or improved efficacy”, the “odds ratio of developing severe toxicity” value (overall study population) is given as 1 and the “odds ratio of developing severe toxicity” value (subpopulation with total homocysteine levels of less than 7.5 μmol/l) is given as 0.7.
